The values that follow come from patent US10975063B2, “Compound, and production method thereof, and methods of treatment using the compound” (ABIVAX, priority 2009, dated 2021).

Experiment [1] concerns LMNA aberrant splicing (MutLMNA-luc cell line). In words: Luciferase assay for repression of LMNA aberrant splicing in stable 293 MutLMNA-luc cell line (293FLP LMNA LUC cells #8). Type of experiment: cell-based. The settings on record: 48 hours, compared to control untreated MutLMNA-luc cell line, read-out: Increase of luciferase activity. From the text: Advantage has been taken of the luciferase system. The luciferase assay is an extremely sensitive and rapid assay. Linear results are seen over at least eight orders of magnitude of enzyme concentration. Moreover, the luciferase assay is well suited for high-throughput applications. To conduct a Mid-throughput screening (MTS) for compounds repressing LMNA aberrant splicing, we have constructed a plasmid in which exon 11, intron 11 and part of exon 12 of LMNA gene were fused with luciferase cDNA (FIG. 2). Both wild type (WtLMNA-luc)(SEQ ID NO: 1) and mutant (MutLMNA-luc)(SEQ ID NO: 2) substrate harbouring exon 11 mutation have been constructed. In these constructs we have generated a single initiation codon in exon 11 such as correct splicing will lead to luciferase expression, while aberrant splicing will skip the initiation codon and thereby prevent luciferase expression. After transfection in HeLa cells, Luciferase assays (FIG. 2B) and RT-PCR (FIG. 2C) indicate that WtLMNA-luc produces predominantly wild type splicing and large amount of luciferase activity, whereas MutLMNA-luc recapitulate the aberrant splicing profile with reduced luciferase expression (FIGS. 2 B and C, compare Wt and Mut). In order to use this system in MTS, we have generated a stable 293 cell lines containing a single integrated copy of luciferase reporter containing LMNA mutation (MutLMNA-luc cell line) using the flp system from INVITROGEN. This system allows us to perform a MTS for compounds able to enhance luciferase activity.
LMNA sequences (1278 bp of exon 11, intron 11 and 46 bp of […]) were PCR-amplified from either control or patient's cells genomic DNA with specific primer PCR fragments were purified with Concert Rapid PCR purification system (Invitrogen) and subcloned at the BamHI and EcoRI restriction sites of the pSppβm3 S1 plasmid containing the βGlobin cassette (Labourier et al., 1999—Recognition of exonic splicing enhancer sequences by the Drosophila splicing repressor RSF1. Nucleic Acids Res. 27, 2377-2386) to give the βGlo3S1LMNAwt and βGlo3S1LMNAmut constructs. The chimeric (3Glo-LMNA sequences were then inserted into the pcDNA3.1D/V5-His-TOPO vector (Invitrogen) to be used in transfection and in vitro splicing experiments. A single initiation codon ATG was kept in exon 11 of LMNA and LMNA sequences described above were fused at their 3′ end to Fyrefly luciferase cDNA (LMNAlucWT) in order that removal of intron 11 generates a transcript that encode a fusion protein harbouring luciferase activity, whereas usage of the cryptic splice site of mutated exon 11 (LMNAlucMut) will remove the initiation codon preventing luciferase expression. Both sequences were cloned in pcDNA3 Flp-In vector (Invitrogen).
A stable 293 cell line containing a single copy of LMNAlucMut minigene was obtained using the Flp-In system from (Invitrogen) according to manufacture procedure. Several clones were obtained and only one clone was used to screen the whole chemical library (293FLP LMNA LUC cells #8).
In a 96 Well Plate sterile, V-shape one put […] of drug compounds at 50 mM and then add 49.5 μl of 10% DMSO.
One pipets […] of drug at 500 μM and adds 200 μL of DMEM+Hygromycin B. At this stage the concentration of drug compound is 10 μM. One shares out 100 μl in a 96 Well Microplate sterile, flat bottom (further called luciferase plate) and 50 μl in other one (further called toxicity plate).
One washes 293FLP LMNA LUC cells once with D-PBS then adds 1 ml trypsin EDTA. Incubation at 37° C. for 2-3 minutes is proceeded. Then one adds 9 ml DMEM (with 10% FCS, P/S).
Cell concentration is brought at 10^5 cells per ml with DMEM+Hygromycin B to have 10^4 cells per 100 μl.
100 μl of suspension cells is added (at 10^4 cells per 100 μl) so final concentration of compounds is […].
Medium of the wells is gently removed then washed once by adding slowly 150 μl of D-PBS 1×. D-PBS is removed. 40 μl of PLB 1× is added and incubated at RT for 30 minutes. […]

A further experiment deals with HIV-1. Kind of experiment: Inhibition of HIV-1 production (p24 antigen) in infected peripheral blood mononuclear cells (PBMCs). Format: cell-based, HIV-1 (AdaM) in PBMCs of healthy donors. The settings on record: for Inhibition of p24 production in HIV infected PBMCs from different donors: tested molecules at 10 μM, p24 after 3 and 6 days of infection, number of donors with inhibition out of donors tested; for IC50: Human immunodeficiency virus 1, PBMC, p24 production in HIV infected PBMCs, dose response curves. The procedure:
Within this framework, the peripheral blood mononuclear cells (PBMCs) of healthy donors are isolated by centrifugation on a FICOLL gradient. The cells are then cultivated to a density of 2.5×10^6 cells/ml with RPMI medium supplemented with 1% inactivated human AB serum, then incubated at 37° C., 5% CO2 for an additional hour. The peripheral blood mononuclear cells are then recovered and cultivated for two days in RPMI medium supplemented with 10% fetal calf serum.
A standard experiment using 96 plates to test 30 molecules in triplicates including positive and negative controls, is performed as follows:
50 10^6 Ficoll purified PBMCs (10% DMSO 90% FCS) are washed with RPMI 10% FCS and resuspended in 25 ml of RPMI 10% FCS, glutamax containing 1000 U/ml of IL2 and 5 μg/ml PHA. The cells are then incubated for 3 days at 37° C. before to be washed with 50 ml PBS then with 50 ml RPMI 10% FCS. The cells are resuspended in 100 μl of RPMI 10% FCS containing 100 U/ml IL2 and seeded in 96 wells (1.5 10^5 cells/well). Viral infection is performed with 1 ng of AdaM/well. 100 μl of tested molecules at concentration of 10 μM are added to each well. Virus production is determined by p24 antigen immunosorbent assays after 3 and 6 days of infection (Kit Innogenetics). Typically PBMCs are prepared from several healthy donors (around 11 different donors). Dose response curves were then established with selected compounds to determine IC50.

In the case of `Cc1cccc(Nc2cc(C)c3ccccc3n2)n1` [Compound 45, 4-methyl-N-(6-methylpyridin-2-yl)quinolin-2-amine], the fold induction at 5 µM in experiment [1] was determined as 3.08. In addition, in the experiment with HIV-1, the “Inhibition of p24 production in HIV infected PBMCs from different donors” value (shortened to “Inhibition … from different donors”) is listed as 4 out of 4 donnors.
The like results for `Cc1cc(OC(F)(F)F)ccc1Nc1ccc2ccccc2n1` [Compound 82, N-[2-methyl-4-(trifluoromethoxy)phenyl]quinolin-2-amine] were, in that order, 3.41 and 4 out of 4 donnors.
The like results for `Fc1cccc(Nc2ccc3ccccc3n2)c1` [Compound 86, N-(3-fluorophenyl)quinolin-2-amine] were, in that order, 2.77 and 3 out of 4 donnors.
For `FC(F)(F)Oc1ccc(Nc2ccc3cccc(Cl)c3n2)cc1Cl` [Compound 104, 8-chloro-N-[3-chloro-4-(trifluoromethoxy)phenyl]quinolin-2-amine], the “Inhibition … from different donors” value in the experiment with HIV-1 is 4 out of 4 donnors.
On to `O=[N+]([O-])c1cccnc1Nc1cnc2ccccc2c1` [Compound 106, N-(3-nitropyridin-2-yl)quinolin-3-amine], for which the fold induction at 5 µM in experiment [1] was determined as 2.77. In addition, in the experiment with HIV-1, the IC50 amounted to 0.5 nM and the “Inhibition … from different donors” value is listed as 6 out of 6 donnors.
On to `Clc1ccc2nc(Nc3cnccn3)ccc2c1` [Compound 109, 6-chloro-N-(pyrazin-2-yl)quinolin-2-amine], for which the fold induction at 5 µM in experiment [1] was found to be 2.79. Further, the “Inhibition … from different donors” value in the experiment with HIV-1 is reported as 8 out of 8 donnors.
For `Clc1cccc2ccc(Nc3cnccn3)nc12` [Compound 112, 8-chloro-N-(pyrazin-2-yl)quinolin-2-amine], in the experiment with HIV-1, the IC50 was 0.1 nM and the “Inhibition … from different donors” value is listed as 12 out of 13 donnors.
Take `Cc1ccnc(Nc2cnc3ccccc3n2)c1` [Compound 136, N-(4-methylpyridin-2-yl)quinoxalin-2-amine]: in experiment [1], the fold induction at 5 µM came to 5.2. Further, the “Inhibition … from different donors” value in the experiment with HIV-1 was 6 out of 8 donnors.
Turning to `Cc1ccnc(Nc2nc3ccccc3nc2C(F)(F)F)c1` [Compound 139, N-(4-methylpyridin-2-yl)-3-(trifluoromethyl)quinoxalin-2-amine], the “Inhibition … from different donors” value with HIV-1 is 4 out of 4 donnors.
Same read-out and setting: to `Cc1c(Cl)cnc(Nc2cnc3ccccc3n2)c1Cl` [Compound 140, N-(3,5-dichloro-4-methylpyridin-2-yl)quinoxalin-2-amine] belongs 4 out of 4 donnors; to `Cc1ccnc(Nc2cnc3ccccc3n2)c1[N+](=O)[O-]` [Compound 141, N-(4-methyl-3-nitropyridin-2-yl)quinoxalin-2-amine], 4 out of 4 donnors.

By IC50 is commonly meant the concentration that gives 50% inhibition. Lower therefore signals greater potency.
